Where “and” joins values, the source holds several entries; their conditions need not be identical. Identical values can stand only once. Entries after “also recorded” stand apart in the source; their conditions may differ. Like-named read-outs stand apart in the source and are kept apart here. Non-standard residues stand in square brackets, D forms with d. No end group written: not given here.
Columns and labels:
POMC neurons [1] = experiment: Action potential frequency (firing rate) of POMC neurons, whole cell or loose cell-attached recordings; type: cell-based, mouse; details: for increase in frequency of action potentials (firing rate) in POMC neurons: fenfluramine 20 μM, loose-cell-attached, n=3, reversed with washout
POMC neurons [2] = experiment: Whole cell recordings of membrane potential of EGFP-labeled POMC neurons in ARC slices; type: cell-based, mouse
[3] = test system: GABAergic IPSCs in POMC neurons; experiment: GABAergic IPSCs recorded in POMC neurons of ARC slices; type: cell-based, mouse
hypothalamic explants = details: Y2A; cited from earlier work
[4] = test system: non-POMC neurons in the arcuate nucleus; experiment: Membrane potential of non-fluorescent (non-POMC) neurons in the ARC; type: cell-based, mouse
[5] = test system: c-fos expression in the arcuate nucleus; experiment: c-fos expression in the lateral arcuate after IP injection, rat; type: in vivo; details: single IP injection
[6] = test system: c-fos expression in the arcuate nucleus; experiment: c-fos expression in arcuate nucleus of Pomc-EGFP mice after IP injection; type: in vivo, mouse; details: IP 5 μg/100 g, 2 hours
From the text: Data were obtained from 5 mice in each group. For the Pomc-EGFP mice 5 anatomically matched arcuate nucleus sections (Franklin et al., The Mouse Brain in Stereotaxic Coordinates (Academic Press, San Diego, 1997) were counted from each animal, and images acquired using a Leica TSC confocal microscope (Grove et al., Neuroscience 100:731-40, 2000).

Molecule: CCNC(C)Cc1cccc(C(F)(F)F)c1 (stereo not drawn) [Fenfluramine]
- increase in frequency of action potentials (firing rate) in POMC neurons (POMC neurons [1]): two fold increase
- increase in frequency of action potentials (firing rate) in POMC neurons (POMC neurons [1]; listed as d-FEN): doubling
- effect on membrane potential of POMC neurons (POMC neurons [2]; fenfluramine, whole cell, dose dependent, n=4-8 per dose): depolarized POMC neurons

Molecule: Clc1cncc(N2CCNCC2)n1 [MK 212, 6-Chloro-2-(1-piperazinyl)pyrazine]
- effect on resting membrane potential of POMC neurons (POMC neurons [2]): depolarized POMC neurons

Molecule: NC1=N[C@H](O)[C@H]2[C@H]3O[C@]4(O)O[C@@H]([C@@H](O)[C@@]2(N1)[C@@H]4O)[C@]3(O)CO [TTX, tetrodotoxin]
- effect on large amplitude IPSCs [3]: abolished large IPSCs

Molecule: Clc1cccc(N2CCNCC2)c1 [mCPP, 1-(3-Chlorophenyl)piperazine]
- effect on resting membrane potential of POMC neurons (POMC neurons [2]): depolarized POMC neurons

Molecule: NCCc1c[nH]c2ccc(O)cc12 [serotonin]
- effect on resting membrane potential of POMC neurons (POMC neurons [2]; serotonin receptor agonists bath-applied four minutes, whole cell, n=4-8 per dose): increased the resting membrane potential (depolarized)

Molecule: D-Trp^8-γMSH (YVMGHFR[dW]DRFG)
- POMC neurons with increased IPSC frequency of cells tested ([3]; D-Trp8-γMSH 7 nM): 3 of 4
- effect on frequency of GABAergic IPSCs in POMC neurons ([3]; D-Trp8-γMSH 7 nM, FIG. 4b): increases the frequency of GABAergic IPSCs
- effect on frequency of action potentials (POMC neurons [1]; D-Trp8-γMSH 7 nM): decreased the frequency of action potentials
- POMC neurons hyperpolarized of cells tested (POMC neurons [2]; D-Trp8-γMSH 7 nM): 9 of 15
- effect on membrane potential of POMC neurons (POMC neurons [2]; D-Trp8-γMSH, FIG. 4c): hyperpolarizes POMC neurons

Molecule: Ghrelin: known appetite stimulant; agent known to increase feeding, caloric intake, and appetite (GSSFLSPEHQRVQQRKESKKPPAKLQPR; ends and bridges not checked; UniProt Q9UBU3 24-51, looked up)
- effect on frequency of IPSCs in POMC neurons ([3]; Ghrelin 50 nM, whole cell): increase in the frequency of IPSCs; also recorded: increases the frequency of spontaneous synaptic GABA release onto POMC neurons
- decrease of action potential firing rate of POMC neurons (POMC neurons [1]; Ghrelin 50 nM, loose-cell-attached mode, reverses with washout): 50%
- mean hyperpolarization of POMC neurons (POMC neurons [2]; Ghrelin 50 nM, three minutes, whole cell, p<0.03): 1.47±0.7 mV
- effect on membrane potential of POMC neurons (POMC neurons [2]; Ghrelin, whole cell, FIG. 12b, 34 experiments): mildly hyperpolarizes POMC neurons

Molecule: N-acetyl (Leu^28, Leu^31) NPY (24-36) [Y2A]
- reduction of IPSC frequency ([3]; Y2A, n=8, P<0.004): 44.4±9.3%
- NPY release from hypothalamic explants (hypothalamic explants): significantly decreased NPY release
- α-MSH release from hypothalamic explants (hypothalamic explants): increase in α-MSH release

Molecule: NPY
- cells in which IPSCs were still inhibited in the presence of tetrodotoxin (TTX) [3]: 6 of 6
- decrease of frequency of GABAergic IPSCs ([3]; NPY 100 nM): 55%
- time to decrease of IPSC frequency ([3]; NPY 100 nM): ≤ 3 min
- effect on frequency of mini IPSCs in POMC neurons ([3]; NPY, FIG. 4a): decreases the frequency of mini IPSCs
- average hyperpolarization of POMC neurons (POMC neurons [2]; NPY, n=3, all POMC neurons tested): 9±6 mV

Molecule: PYY3-36
- hyperpolarization of unidentified, presumably NPY-containing, non-POMC neurons ([4]; PYY3-36 25 nM, n=5, P<0.004): 5.2±1.16 mV
- increase in number of cells positive for c-fos vs saline [5]: 2 fold
- increase in number of arcuate cells positive for c-fos vs saline [6]: 1.8 fold
- increase in proportion of POMC neurons that express c-fos vs saline [6]: 2.6 fold
- number of arcuate cells positive for c-fos ([6]; n=5, P<0.05): 250±40
- increase in frequency of action potentials (POMC neurons [1]; PYY3-36 10 nM, loose cell-attached, reversible, n=8): 5 fold
- increase in frequency of action potentials over control (POMC neurons [1]; PYY3-36 10 nM, whole-cell, n=22, P<0.05): 93%
- POMC neurons depolarized of cells tested (POMC neurons [2]; PYY3-36, whole cell): 19 of the 22

Molecule: leptin: adipostatic hormone
- cells in which IPSCs were still inhibited in the presence of tetrodotoxin (TTX) [3]: 3 of 5
- POMC cells with decreased IPSC frequency of cells tested ([3]; leptin 100 nM): 5 out of 15
- effect on frequency of IPSCs in POMC cells ([3]; leptin 100 nM, FIG. 3d, 5 cells): decreased the frequency of IPSCs
- decrease of frequency of GABAergic IPSCs ([3]; leptin 100 nM, in responding cells): 25%
- adjacent non-fluorescent cells with no effect ([4]; leptin, 13 cells tested): 5 and 5 of 13
- non-POMC ARC neurons depolarized ([4]; leptin, 13 cells tested): 3
- non-fluorescent ARC neurons hyperpolarized ([4]; leptin, 13 cells tested): 5
- effect on frequency of action potentials (POMC neurons [1]; leptin, FIG. 3a, 77 POMC neurons): increases the frequency of action potentials
- mean±s.e.m. depolarization (POMC neurons [2]; 100 nM leptin, n=45): 9.7±1.2 mV
- reversal potential of small inward current causing depolarization (POMC neurons [2]; leptin 100 nM, slow voltage ramps): approximately −20 mV
- POMC cells depolarized of cells tested (POMC neurons [2]; leptin 0.1-100 nM): 72 of 77
- depolarization of POMC cells (POMC neurons [2]; leptin 0.1-100 nM): 3-30 mV
- time to depolarization after addition (POMC neurons [2]; leptin 0.1-100 nM): 1 to 10 min and 2 to 10 min

Molecule: met-enkephalin
- effect on spontaneous action potentials of POMC cells (POMC neurons [1]): inhibits all action potentials; also recorded: prevented spontaneous action potential generation
- effect on membrane potential of POMC neurons (POMC neurons [2]): hyperpolarizes POMC neurons

Molecule: picrotoxin
- effect on IPSCs [3]: blocked all IPSCs

Source: patent US7745604B2, “Upstream control elements of the proopiomelanocortin gene and their use” (Oregon Health & Science University, priority 2001, dated 2010)
